Results as given in PMC3833348 (MedChemComm, 2013).

Tests used:
[1] = Solubility in aqueous buffer; format: physicochemical; conditions: as compared to Aba-C10
[2] = biological target: T1, P-gp (Homo sapiens, UniProt P08183); experiment: Substrate accumulation assays in MCF-7/DX1 cells; format: cell-based
[3] = biological target: T1, P-gp; experiment: Inhibition of P-gp-mediated efflux of NBD-Aba in hCMEC/D3 cells; format: cell-based
[4] = system: P-gp; conditions: cited from earlier work

T1 sequence (P08183 whole entry): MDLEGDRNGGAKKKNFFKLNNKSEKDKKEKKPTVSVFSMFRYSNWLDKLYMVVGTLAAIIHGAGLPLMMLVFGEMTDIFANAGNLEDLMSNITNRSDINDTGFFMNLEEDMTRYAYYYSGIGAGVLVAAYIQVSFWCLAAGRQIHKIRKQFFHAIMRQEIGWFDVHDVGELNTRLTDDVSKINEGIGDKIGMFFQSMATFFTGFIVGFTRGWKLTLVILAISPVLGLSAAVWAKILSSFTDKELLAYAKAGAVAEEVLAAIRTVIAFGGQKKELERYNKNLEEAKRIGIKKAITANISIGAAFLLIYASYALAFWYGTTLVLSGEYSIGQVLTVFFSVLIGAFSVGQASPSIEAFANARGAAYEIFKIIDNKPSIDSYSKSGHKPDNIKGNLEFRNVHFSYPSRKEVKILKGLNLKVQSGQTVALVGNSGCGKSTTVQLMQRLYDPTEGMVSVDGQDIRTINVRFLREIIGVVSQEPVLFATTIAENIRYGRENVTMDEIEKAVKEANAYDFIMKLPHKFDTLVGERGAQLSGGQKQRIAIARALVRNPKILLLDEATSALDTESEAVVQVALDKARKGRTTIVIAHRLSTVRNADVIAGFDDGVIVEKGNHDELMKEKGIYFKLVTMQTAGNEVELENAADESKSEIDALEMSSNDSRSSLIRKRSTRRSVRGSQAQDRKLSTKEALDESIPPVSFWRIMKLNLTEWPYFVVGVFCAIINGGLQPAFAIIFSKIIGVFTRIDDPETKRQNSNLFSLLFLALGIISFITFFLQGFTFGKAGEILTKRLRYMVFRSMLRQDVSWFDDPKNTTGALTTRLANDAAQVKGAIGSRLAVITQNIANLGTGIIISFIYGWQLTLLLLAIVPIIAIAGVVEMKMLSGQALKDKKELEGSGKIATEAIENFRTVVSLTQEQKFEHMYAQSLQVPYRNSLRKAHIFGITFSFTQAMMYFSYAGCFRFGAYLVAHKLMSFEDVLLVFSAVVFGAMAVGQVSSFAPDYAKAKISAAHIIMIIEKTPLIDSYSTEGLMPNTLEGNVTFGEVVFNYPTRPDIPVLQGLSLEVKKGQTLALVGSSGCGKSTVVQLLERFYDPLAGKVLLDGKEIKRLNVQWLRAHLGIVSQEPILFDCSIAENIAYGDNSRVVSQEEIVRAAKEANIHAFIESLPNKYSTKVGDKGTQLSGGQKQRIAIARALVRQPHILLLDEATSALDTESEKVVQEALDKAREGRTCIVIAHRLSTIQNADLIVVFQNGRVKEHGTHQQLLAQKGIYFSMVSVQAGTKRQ

Structure (SMILES): Nc1nc(NC2CC2)c2ncn([C@H]3C=C[C@@H](COC(=O)CCCCCCCCC(=O)OC[C@@H]4C=C[C@H](n5cnc6c(NC7CC7)nc(N)nc65)C4)C3)c2n1 [Aba-C8]
- Solubility in aqueous buffer [1]: more favorable solubility
- Fold decrease of potency in MCF-7/DX1 cells versus 12D7-MDR ([2]; NBD-Aba as substrate): ~6 fold
- Fold decrease of potency in MCF-7/DX1 cells versus hCMEC/D3 ([2]; NBD-Aba as substrate): about 3 fold
- Inhibition of efflux of each of the substrates in MCF-7/DX1 cells ([2]; substrates BODIPY-prazosin, doxorubicin, [3H]-daunomycin and NBD-Aba): effectively inhibit efflux

Structure (SMILES): Nc1nc(NC2CC2)c2ncn([C@H]3C=C[C@@H](COC(=O)CCCCCCCCCCC(=O)OC[C@@H]4C=C[C@H](n5cnc6c(NC7CC7)nc(N)nc65)C4)C3)c2n1 [Aba-C10]
- Fold more potent than monomeric abacavir [3]: greater than 500 fold

Structure (SMILES): Nc1nc(NC2CC2)c2ncn([C@H]3C=C[C@@H](CO)C3)c2n1 [abacavir, reference compound]
- Fold increase in brain levels, P-gp-null mice versus wild-type mice [4]: 20 fold
- Effect on transport in MCF-7/DX1 cells ([2]; up to a concentration of 100 µM, data not shown): no effect on transport
